In US8741836B2, “Polypeptides” (Novo Nordisk A/S, priority 2011, dated 2014):
Starred links: 1 amine or outer side, 2 acyl side, 3 side chain; linkers in the order of their positions; H or OH if unused. Positions of bridges follow the written chain, without caps; N, C: chain ends. Residues, ends and D or L forms follow the SMILES beside them. Groups on a side chain read outwards from the residue. *: point of attachment. C20 diacid = O=C(O)CCCCCCCCCCCCCCCCCCC(=O)*; C18 diacid = O=C(O)CCCCCCCCCCCCCCCCC(=O)*; γGlu = O=C(O)[C@H](CCC(=O)[*:2])N[*:1]; AEEA = NCCOCCOCC(=O)O

Key:
[1] = system: ad libitum fed rat; assay: Assay (I) efficacy testing on appetite (food intake) using an ad libitum fed rat model; type: in vivo, Sprague Dawley (SD) rats; details: 3 nmol/kg
Summary of the method: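 Ad libitum fed Sprague Dawley rats, 200-250 g, singly housed on reversed light cycle, got one ip, po or sc dose of 0.01-3 mg/kg just before lights off; groups of 5-8 with vehicle control. Food intake recorded hourly for 7 h, then at 24 h and sometimes 48 h; Grubbs outliers excluded.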

[2] = Assay (III) ThT fibrillation assay for physical stability; type: physicochemical; details: for ThT pH 4.0 lag time: pH 4.0, ThT fibrillation assay
Summary of the method: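 Freshly prepared, pH-adjusted formulations with 1 μM ThT incubated at 37 °C under 960 rpm orbital shaking (1 mm), fluorescence (ex 444, em 485 nm) read every 20 min. […] Peptide content before and after measured by reverse-phase HPLC against pramlintide standard.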

Compound | Food intake reduction 0-24 h 3 nmol/kg (%) [1] [%] | Food intake reduction 24-48 h 3 nmol/kg (%) [1] [%] | ThT pH 4.0 lag time [2] [h] | ThT pH 4.0 lag time (physical stability in fibrillogenesis assay) [2] [h]
CC[C@H](C)[C@H](NC(=O)[C@@H]1CCCN1C(=O)CNC(=O)[C@H](Cc1ccccc1)NC(=O)[C@H](CC(N)=O)NC(=O)[C@H](CC(N)=O)NC(=O)[C@H](CO)NC(=O)[C@H](CO)NC(=O)[C@H](Cc1c[nH]cn1)NC(=O)[C@H](CCCNC(=N)N)NC(=O)[C@H](CC(C)C)NC(=O)[C@H](Cc1ccccc1)NC(=O)[C@H](CCC(=O)O)NC(=O)[C@H](C)NC(=O)[C@H](CC(C)C)NC(=O)[C@H](CCCNC(=N)N)NC(=O)[C@H](CCC(N)=O)NC(=O)[C@@H](NC(=O)[C@H](C)NC(=O)[C@@H]1CSSC[C@H](NC(=O)[C@H](CCCCN)NC(=O)[C@H](Cc2c[nH]cn2)NC(=O)CC[C@H](NC(=O)CCCCCCCCCCCCCCCCC(=O)O)C(=O)O)C(=O)N[C@@H](CC(N)=O)C(=O)N[C@@H]([C@@H](C)O)C(=O)N[C@@H](C)C(=O)N[C@@H]([C@@H](C)O)C(=O)N1)[C@@H](C)O)C(=O)N[C@@H](CC(C)C)C(=O)N1CCC[C@H]1C(=O)N1CCC[C@H]1C(=O)N[C@H](C(=O)N[C@@H](CC(N)=O)C(=O)N[C@H](C(=O)NCC(=O)N[C@@H](CO)C(=O)N[C@@H](Cc1c[nH]cn1)C(=O)N[C@H](C(=O)N[C@@H](Cc1ccc(O)cc1)C(N)=O)[C@@H](C)O)C(C)C)[C@@H](C)O [Example 71, N-alpha-[(S)-4-Carboxy-4-(17-carboxyheptadecanoylamino)butyryl]-His-[Glu14,Arg17,His35]-pramlintide] ({C18 diacid-γGlu}-HKCNTATCATQRLAEFLRHSSNNFGPILPPTNVGSHTY-NH2; disulfide 3-8 (inferred)) | 10 | 0 | >45 | –
CC[C@H](C)[C@H](NC(=O)[C@H](CCCCNC(=O)COCCOCCNC(=O)COCCOCCNC(=O)CC[C@H](NC(=O)CCCCCCCCCCCCCCCCC(=O)O)C(=O)O)NC(=O)CNC(=O)[C@H](Cc1ccccc1)NC(=O)[C@H](CC(N)=O)NC(=O)[C@H](CC(N)=O)NC(=O)[C@H](CO)NC(=O)[C@H](CO)NC(=O)[C@H](Cc1c[nH]cn1)NC(=O)[C@H](Cc1c[nH]cn1)NC(=O)[C@H](CC(C)C)NC(=O)[C@H](Cc1ccccc1)NC(=O)[C@H](CCC(=O)O)NC(=O)[C@H](C)NC(=O)[C@H](CC(C)C)NC(=O)[C@H](CCCNC(=N)N)NC(=O)[C@H](CCC(N)=O)NC(=O)[C@@H](NC(=O)[C@H](C)NC(=O)[C@@H]1CSSC[C@H](NC(=O)[C@@H](N)CCCCN)C(=O)N[C@@H](CC(N)=O)C(=O)N[C@@H]([C@@H](C)O)C(=O)N[C@@H](C)C(=O)N[C@@H]([C@@H](C)O)C(=O)N1)[C@@H](C)O)C(=O)N[C@@H](CC(C)C)C(=O)N1CCC[C@H]1C(=O)N1CCC[C@H]1C(=O)N[C@H](C(=O)N[C@@H](CC(N)=O)C(=O)N[C@H](C(=O)NCC(=O)N[C@@H](CO)C(=O)N[C@@H](CC(N)=O)C(=O)N[C@H](C(=O)N[C@@H](Cc1ccc(O)cc1)C(N)=O)[C@@H](C)O)C(C)C)[C@@H](C)O [Example 73, N-epsilon25-[2-(2-{2-[2-(2-{2-[(S)-4-Carboxy-4-(17-carboxyheptadecanoylamino)butyrylamino]ethoxy}ethoxy)acetylamino]ethoxy}ethoxy)acetyl]-[Glu14,His17,Lys25]-pramlintide] (H-KCNTATCATQRLAEFLHHSSNNFGK([AEEA-AEEA-γGlu-C18 diacid])ILPPTNVGSNTY-NH2; disulfide 2-7; N-terminus assumed) | 29 | 2 | >45 | –
CC[C@H](C)[C@H](NC(=O)[C@@H]1CCCN1C(=O)CNC(=O)[C@H](Cc1ccccc1)NC(=O)[C@H](CC(N)=O)NC(=O)[C@H](CC(N)=O)NC(=O)[C@H](CO)NC(=O)[C@H](CO)NC(=O)[C@H](Cc1c[nH]cn1)NC(=O)[C@H](Cc1c[nH]cn1)NC(=O)[C@H](CC(C)C)NC(=O)[C@H](Cc1ccccc1)NC(=O)[C@H](CCC(=O)O)NC(=O)[C@H](C)NC(=O)[C@H](CC(C)C)NC(=O)[C@H](CCCNC(=N)N)NC(=O)[C@H](CCC(N)=O)NC(=O)[C@@H](NC(=O)[C@H](C)NC(=O)[C@@H]1CSSC[C@H](NC(=O)[C@@H](N)CCCCNC(=O)CC[C@H](NC(=O)CCCCCCCCCCCCCCCCCCC(=O)O)C(=O)O)C(=O)N[C@@H](CC(N)=O)C(=O)N[C@@H]([C@@H](C)O)C(=O)N[C@@H](C)C(=O)N[C@@H]([C@@H](C)O)C(=O)N1)[C@@H](C)O)C(=O)N[C@@H](CC(C)C)C(=O)N1CCC[C@H]1C(=O)N1CCC[C@H]1C(=O)N[C@H](C(=O)N[C@@H](CC(N)=O)C(=O)N[C@H](C(=O)NCC(=O)N[C@@H](CO)C(=O)N[C@@H](Cc1c[nH]cn1)C(=O)N[C@H](C(=O)N[C@@H](Cc1ccc(O)cc1)C(N)=O)[C@@H](C)O)C(C)C)[C@@H](C)O [Example 87, N-epsilon1-[(S)-4-Carboxy-4-(19-carboxynonadecanoylamino)butyryl]-[Glu14,His17,His35]-pramlintide] (H-K([γGlu-C20 diacid])CNTATCATQRLAEFLHHSSNNFGPILPPTNVGSHTY-NH2; disulfide 2-7 (inferred); C-terminus assumed) | 66 | 47 | 25 | –
CC[C@H](C)[C@H](NC(=O)[C@@H]1CCCN1C(=O)CNC(=O)[C@H](Cc1ccccc1)NC(=O)[C@H](CC(N)=O)NC(=O)[C@H](CC(N)=O)NC(=O)[C@H](CO)NC(=O)[C@H](CO)NC(=O)[C@H](Cc1c[nH]cn1)NC(=O)[C@H](CCCNC(=N)N)NC(=O)[C@H](CC(C)C)NC(=O)[C@H](Cc1ccccc1)NC(=O)[C@H](CCC(=O)O)NC(=O)[C@H](C)NC(=O)[C@H](CC(C)C)NC(=O)[C@H](CCCNC(=N)N)NC(=O)[C@H](CCC(N)=O)NC(=O)[C@@H](NC(=O)[C@H](C)NC(=O)[C@@H]1CSSC[C@H](NC(=O)[C@H](Cc2c[nH]cn2)NC(=O)CNC(=O)CC[C@H](NC(=O)CCCCCCCCCCCCCCCCCCC(=O)O)C(=O)O)C(=O)N[C@@H](CC(N)=O)C(=O)N[C@@H]([C@@H](C)O)C(=O)N[C@@H](C)C(=O)N[C@@H]([C@@H](C)O)C(=O)N1)[C@@H](C)O)C(=O)N[C@@H](CC(C)C)C(=O)N1CCC[C@H]1C(=O)N1CCC[C@H]1C(=O)N[C@H](C(=O)N[C@@H](CC(N)=O)C(=O)N[C@H](C(=O)NCC(=O)N[C@@H](CO)C(=O)N[C@@H](CC(N)=O)C(=O)N[C@H](C(=O)N1CCC[C@H]1C(N)=O)[C@@H](C)O)C(C)C)[C@@H](C)O [Example 89, N-alpha-[(S)-4-Carboxy-4-(19-carboxynonadecanoylamino)butyryl]-Gly-[His1,Glu14,Arg17,Pro37]-pramlintide] ({C20 diacid-γGlu}-GHCNTATCATQRLAEFLRHSSNNFGPILPPTNVGSNTP-NH2; disulfide 3-8 (inferred)) | 42 | 23 | >45 | >45
CC[C@H](C)[C@H](NC(=O)[C@@H]1CCCN1C(=O)CNC(=O)[C@H](Cc1ccccc1)NC(=O)[C@H](CC(N)=O)NC(=O)[C@H](CC(N)=O)NC(=O)[C@H](CO)NC(=O)[C@H](CO)NC(=O)[C@H](Cc1c[nH]cn1)NC(=O)[C@H](Cc1c[nH]cn1)NC(=O)[C@H](CC(C)C)NC(=O)[C@H](Cc1ccccc1)NC(=O)[C@H](CCC(=O)O)NC(=O)[C@H](C)NC(=O)[C@H](CC(C)C)NC(=O)[C@H](CCCNC(=N)N)NC(=O)[C@H](CCC(N)=O)NC(=O)[C@@H](NC(=O)[C@H](C)NC(=O)[C@@H]1CSSC[C@H](NC(=O)[C@H](CCCNC(=N)N)NC(=O)CC[C@H](NC(=O)CCCCCCCCCCCCCCCCCCC(=O)O)C(=O)O)C(=O)N[C@@H](CC(N)=O)C(=O)N[C@@H]([C@@H](C)O)C(=O)N[C@@H](C)C(=O)N[C@@H]([C@@H](C)O)C(=O)N1)[C@@H](C)O)C(=O)N[C@@H](CC(C)C)C(=O)N1CCC[C@H]1C(=O)N1CCC[C@H]1C(=O)N[C@H](C(=O)N[C@@H](CC(N)=O)C(=O)N[C@H](C(=O)NCC(=O)N[C@@H](CO)C(=O)N[C@@H](CC(N)=O)C(=O)N[C@H](C(=O)N1CCC[C@H]1C(N)=O)[C@@H](C)O)C(C)C)[C@@H](C)O [Example 96, N-alpha-[(S)-4-Carboxy-4-(19-carboxynonadecanoylamino)butyryl]-[Arg1,Glu14,His17,Pro37]-pramlintide] ({C20 diacid-γGlu}-RCNTATCATQRLAEFLHHSSNNFGPILPPTNVGSNTP-NH2; disulfide 2-7) | 69 | 89 | >45 | >45
CC[C@H](C)[C@H](NC(=O)[C@@H]1CCCN1C(=O)CNC(=O)[C@H](Cc1ccccc1)NC(=O)[C@H](CC(N)=O)NC(=O)[C@H](CC(N)=O)NC(=O)[C@H](CO)NC(=O)[C@H](CO)NC(=O)[C@H](Cc1c[nH]cn1)NC(=O)[C@H](Cc1c[nH]cn1)NC(=O)[C@H](CC(C)C)NC(=O)[C@H](Cc1ccccc1)NC(=O)[C@H](CCC(=O)O)NC(=O)[C@H](C)NC(=O)[C@H](CC(C)C)NC(=O)[C@H](CCCNC(=N)N)NC(=O)[C@H](CCC(N)=O)NC(=O)[C@@H](NC(=O)[C@H](C)NC(=O)[C@@H]1CSSC[C@H](NC(=O)[C@H](CCCNC(=N)N)NC(=O)CNC(=O)CC[C@H](NC(=O)CCCCCCCCCCCCCCCCCCC(=O)O)C(=O)O)C(=O)N[C@@H](CC(N)=O)C(=O)N[C@@H]([C@@H](C)O)C(=O)N[C@@H](C)C(=O)N[C@@H]([C@@H](C)O)C(=O)N1)[C@@H](C)O)C(=O)N[C@@H](CC(C)C)C(=O)N1CCC[C@H]1C(=O)N1CCC[C@H]1C(=O)N[C@H](C(=O)N[C@@H](CC(N)=O)C(=O)N[C@H](C(=O)NCC(=O)N[C@@H](CO)C(=O)N[C@@H](CC(N)=O)C(=O)N[C@H](C(=O)N1CCC[C@H]1C(N)=O)[C@@H](C)O)C(C)C)[C@@H](C)O [Example 101, N-alpha-[(S)-4-Carboxy-4-(19-carboxynonadecanoylamino)butyryl]-Gly-[Arg1,Glu14,His17,Pro37]-pramlintide] ({C20 diacid-γGlu}-GRCNTATCATQRLAEFLHHSSNNFGPILPPTNVGSNTP-NH2; disulfide 3-8) | 70 | 90 | >45 | >45
